Reference: the supplement of paper PMC10331698
± gives the standard deviation of the averaged measurements.

Tests used:
Assay in all cases: level (log10 ratio to DMSO vehicle control); higher = higher biomarker level / cell amount than vehicle control
Conditions in all cases: in DMSO
[1] = compound: FC(F)(F)C(F)(F)CNCC(F)(F)C(F)(F)F [Bis(1H,1H-perfluoropropyl)amine]
Experimental: (§1)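 BioMAP Diversity Plus panel of 12 human primary cell co-culture systems (3C, 4H, LPS, SAg, BT, BF4T, BE3C, CASM3C, HDF3CGF, KF3CT, MyoF, Mphg). Compounds were added 1 h before stimulation and left for 24 h (MyoF 48 h; BT 72 h for soluble read-outs or 6 d for IgG). Biomarkers were read by ELISA, cytotoxicity by SRB, PBMC viability and proliferation by Alamar Blue. Each well value was divided by the mean of 8 DMSO control wells on the same plate and log10 transformed; duplicate blinded samples were tested at 4 concentrations.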

Nonafluoropentanamide = compound: NC(=O)C(F)(F)C(F)(F)C(F)(F)C(F)(F)F [Nonafluoropentanamide]
Experimental: as §1

[2] = compound: O=C(O)C(F)(F)C(F)(F)C(F)(F)C(F)(F)C(F)(F)C(F)(F)C(F)(F)C(F)(F)C(F)(F)C(F)F [11-H-Perfluoroundecanoic acid]
Experimental: as §1

[3] = compound: O=S(=O)(Cl)C(F)(F)C(F)(F)C(F)(F)C(F)(F)C(F)(F)C(F)(F)C(F)(F)C(F)(F)F [Perfluoro-1-octanesulfonyl chloride]
Experimental: as §1

[4] = compound: O=S(=O)(F)C(F)(F)C(F)(F)C(F)(F)C(F)(F)C(F)(F)C(F)(F)C(F)(F)C(F)(F)F [Perfluorooctanesulfonyl fluoride]
Experimental: as §1

[5] = compound: O=S(=O)(O)C(F)(F)C(F)(F)C(F)(F)C(F)(F)C(F)(F)C(F)(F)C(F)(F)C(F)(F)C(F)(F)C(F)(F)F [Sodium perfluorodecanesulfonate]
Experimental: as §1

Row | Test System | level (log10) ([1]; 6700 nM) | level (log10) ([1]; 20000 nM) | level (log10) ([1]; 60000 nM) | level (log10) (Nonafluoropentanamide; 6700 nM) | level (log10) (Nonafluoropentanamide; 20000 nM) | level (log10) (Nonafluoropentanamide; 60000 nM) | level (log10) ([2]; 6700 nM) | level (log10) ([2]; 20000 nM) | level (log10) ([3]; 6700 nM) | level (log10) ([3]; 20000 nM) | level (log10) ([3]; 60000 nM) | level (log10) ([4]; 6700 nM) | level (log10) ([4]; 20000 nM) | level (log10) ([4]; 60000 nM) | level (log10) ([5]; 1500 nM) | level (log10) ([5]; 4400 nM) | level (log10) ([5]; 13000 nM) | level (log10) ([5]; 40000 nM)
1 | SAg:CCL2/MCP-1 | -0.013 ± 0.016 | -0.006 ± 0.0099 | 0.017 ± 0.028 | -0.0125 ± 0.0035 | -0.0175 ± 0.012 | 0.0195 ± 0.053 | -0.0105 ± 0.022 | -0.0125 ± 0.0035 | -0.028 ± 0.017 | 0.0005 ± 0.025 | 0.041 ± 0.0028 | 0.0135 ± 0.0035 | -0.018 ± 0.0042 | 0.0035 ± 0.029 | 0.0175 ± 0.022 | -0.014 ± 0.016 | 0.043 ± 0.0085 | 0.0825 ± 0.021
2 | SAg:CD38 | 0.001 ± 0.017 | -0.008 ± 0.018 | 0.002 ± 0.014 | -0.0345 ± 0.037 | -0.0265 ± 0.04 | -0.032 ± 0.028 | -0.0045 ± 0.023 | 0.004 ± 0.04 | -0.0105 ± 0.00071 | -0.018 ± 0.0014 | -0.058 ± 0.027 | -0.0015 ± 0.039 | 0.0035 ± 0.0092 | 0.0145 ± 0.005 | -0.018 ± 0.02 | -0.041 ± 0.03 | 0.005 ± 0.035 | -0.071 ± 0.028
3 | SAg:CD40 | 0.011 ± 0.017 | 0.0025 ± 0.0064 | -0.003 ± 0.02 | -0.0145 ± 0.033 | 0.0055 ± 0.013 | 0.002 ± 0.018 | -0.024 | -0.0355 ± 0.012 | 0.002 ± 0.0071 | -0.015 ± 0.0028 | -0.078 ± 0.034 | 0.002 ± 0.0071 | -0.003 ± 0.0071 | -0.012 ± 0.0014 | -0.0185 ± 0.032 | -0.042 ± 0.025 | -0.103 ± 0.055 | -0.212 ± 0.055
4 | SAg:CD62E/E-Selectin | 0.001 ± 0.013 | -0.0075 ± 0.016 | 0.01 ± 0.031 | -0.006 ± 0.018 | -0.0075 ± 0.00071 | 0.009 ± 0.0042 | 0.007 ± 0.021 | 0.0035 ± 0.005 | -0.0055 ± 0.013 | 0.0155 ± 0.019 | 0.127 ± 0.016 | 0.02 ± 0.05 | -0.0115 ± 0.0035 | -0.0035 ± 0.019 | -0.0105 ± 0.0064 | 0.026 ± 0.0085 | 0.0755 ± 0.04 | 0.138 ± 0.036
5 | SAg:CXCL8/IL-8 | 0.0265 ± 0.059 | -0.0085 ± 0.023 | 0.0095 ± 0.053 | -0.0285 ± 0.039 | -0.027 ± 0.02 | -0.0305 ± 0.076 | -0.0115 ± 0.019 | -0.0115 ± 0.05 | -0.011 ± 0.011 | 0.012 ± 0.0099 | 0.093 ± 0.016 | 0.039 ± 0.1 | -0.012 ± 0.025 | 0.012 ± 0.058 | 0.0165 ± 0.025 | -0.0175 ± 0.016 | 0.06 ± 0.0042 | 0.126 ± 0.019
6 | SAg:CXCL9/MIG | -0.0045 ± 0.0021 | -0.0045 ± 0.0035 | 0.0075 ± 0.012 | 0.003 ± 0.014 | -0.0035 ± 0.013 | 0.0185 ± 0.015 | -0.005 ± 0.011 | -0.011 | -0.007 ± 0.0071 | -0.018 ± 0.0028 | 0.0075 ± 0.021 | -0.005 ± 0.0014 | -0.0015 ± 0.0078 | 0.002 ± 0.018 | 0.0075 ± 0.013 | -0.0085 ± 0.011 | 0.015 ± 0.013 | -0.0255 ± 0.013
7 | SAg:PBMC Cytotoxicity | 0.01 ± 0.013 | -0.011 ± 0.0028 | -0.0055 ± 0.037 | 0.009 ± 0.02 | -0.0005 ± 0.013 | 0.0295 ± 0.018 | 0.002 ± 0.045 | 0.0035 ± 0.021 | 0.01 ± 0.025 | 0.0045 ± 0.016 | 0.067 ± 0.0085 | -0.0155 ± 0.029 | 0.0105 ± 0.022 | 0.011 ± 0.027 | 0.008 ± 0.027 | -0.002 ± 0.0071 | -0.037 ± 0.0028 | 0.017 ± 0.0071
8 | SAg:Proliferation | -0.0275 ± 0.012 | -0.0025 ± 0.052 | 0.0295 ± 0.076 | -0.01 ± 0.052 | -0.05 ± 0.034 | -0.0945 ± 0.1 | -0.0145 ± 0.03 | 0.019 ± 0.0071 | 0.0235 ± 0.044 | 0.0205 ± 0.04 | 0.0395 ± 0.036 | -0.0275 ± 0.0035 | -0.0095 ± 0.049 | 0.0025 ± 0.019 | -0.0065 ± 0.0035 | -0.006 ± 0.0042 | -0.024 ± 0.034 | -0.023 ± 0.035
9 | SAg:SRB | -0.012 ± 0.0028 | -0.001 ± 0.017 | 0.0035 ± 0.0035 | -0.0025 ± 0.00071 | -0.0055 ± 0.00071 | -0.0045 ± 0.0078 | 0.0155 ± 0.005 | 0.0035 ± 0.011 | -0.001 ± 0.0042 | -0.0045 ± 0.011 | -0.107 ± 0.033 | 0.0055 ± 0.0064 | 0.0005 ± 0.0021 | 0.0015 ± 0.0035 | -0.002 ± 0.0057 | -0.0015 ± 0.00071 | -0.016 ± 0.0014 | -0.078 ± 0.0042
